Reference: publication PMC6972889, “Structural insight into small molecule action on Frizzleds” (Nature Communications, 2020)
Counter-ions that a name gives are not always drawn.

Assays:
[1] = target: T1, FZD6 (Nluc–FZD6; SNAP–FZD6; SNAP–FZD6–Rluc8; FLAG–FZD6–Nluc) (Homo sapiens, UniProt O60353); assay: NanoBRET saturation binding, living SMO-knockout HEK293 cells; assay type: cell-based; details: Nluc–FZD6, 90 min, 37 °C; labelled compound
T1 construct: expressed in SMO-knockout HEK293 cells
T1 sequence (O60353 19-706): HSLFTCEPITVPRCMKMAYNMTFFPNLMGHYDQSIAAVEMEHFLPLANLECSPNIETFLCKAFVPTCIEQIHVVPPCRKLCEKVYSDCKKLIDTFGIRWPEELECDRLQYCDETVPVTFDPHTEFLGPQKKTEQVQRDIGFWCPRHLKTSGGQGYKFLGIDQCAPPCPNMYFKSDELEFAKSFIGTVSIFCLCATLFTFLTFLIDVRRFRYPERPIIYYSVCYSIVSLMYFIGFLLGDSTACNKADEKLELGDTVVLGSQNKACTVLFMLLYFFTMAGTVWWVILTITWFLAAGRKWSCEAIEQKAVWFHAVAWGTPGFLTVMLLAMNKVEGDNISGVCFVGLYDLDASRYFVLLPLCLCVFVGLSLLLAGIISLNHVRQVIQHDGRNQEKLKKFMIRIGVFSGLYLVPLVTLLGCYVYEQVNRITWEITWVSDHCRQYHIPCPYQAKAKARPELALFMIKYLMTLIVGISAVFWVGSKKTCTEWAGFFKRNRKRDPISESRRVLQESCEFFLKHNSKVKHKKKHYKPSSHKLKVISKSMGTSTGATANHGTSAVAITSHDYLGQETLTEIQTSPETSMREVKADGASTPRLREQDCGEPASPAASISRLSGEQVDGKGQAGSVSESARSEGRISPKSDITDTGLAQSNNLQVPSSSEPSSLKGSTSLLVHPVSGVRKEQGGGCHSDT

[2] = target: T2, FZD6–FlAsH–TFP (Homo sapiens, UniProt O60353, INS404FLNCCPGCCMEP); assay: intramolecular FRET conformational probe in HEK293 cells; assay type: cell-based
T2 construct: from FZD6–GFP; expressed in HEK293 cells
T2 sequence (O60353 with tags, fused parts or gaps INS404FLNCCPGCCMEP): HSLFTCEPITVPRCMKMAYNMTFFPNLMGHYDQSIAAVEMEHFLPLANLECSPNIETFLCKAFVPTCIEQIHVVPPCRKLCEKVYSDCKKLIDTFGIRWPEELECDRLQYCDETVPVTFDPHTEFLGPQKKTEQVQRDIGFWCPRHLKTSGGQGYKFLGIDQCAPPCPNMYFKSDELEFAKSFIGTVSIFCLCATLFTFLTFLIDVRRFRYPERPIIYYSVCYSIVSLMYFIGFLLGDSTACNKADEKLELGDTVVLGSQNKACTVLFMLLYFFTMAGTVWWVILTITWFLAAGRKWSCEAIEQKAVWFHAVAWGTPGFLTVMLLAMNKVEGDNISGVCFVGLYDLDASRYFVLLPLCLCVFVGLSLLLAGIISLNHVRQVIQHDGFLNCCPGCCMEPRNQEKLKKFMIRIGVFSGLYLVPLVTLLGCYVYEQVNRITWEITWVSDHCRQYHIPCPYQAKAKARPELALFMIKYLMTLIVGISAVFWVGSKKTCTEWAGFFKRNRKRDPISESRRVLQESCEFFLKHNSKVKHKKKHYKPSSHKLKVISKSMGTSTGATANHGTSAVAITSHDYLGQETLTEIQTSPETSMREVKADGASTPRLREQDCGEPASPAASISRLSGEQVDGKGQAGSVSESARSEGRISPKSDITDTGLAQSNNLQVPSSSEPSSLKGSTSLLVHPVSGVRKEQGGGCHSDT

[3] = target: T1, FZD6 (Nluc–FZD6; SNAP–FZD6; SNAP–FZD6–Rluc8; FLAG–FZD6–Nluc); assay: BRET Venus–mGsi recruitment in SMO-knockout HEK293 cells; assay type: cell-based; details: agonist; bell-shaped curve
[4] = target: T1, FZD6 (Nluc–FZD6; SNAP–FZD6; SNAP–FZD6–Rluc8; FLAG–FZD6–Nluc); assay: NanoBRET competition binding, living SMO-knockout HEK293 cells; assay type: cell-based
[5] = target: T3, FZD4 (FZD4–Nluc; SNAP–FZD4) (Homo sapiens, UniProt Q9ULV1); assay: BRET Venus–mG13 recruitment to FZD4–Nluc; assay type: cell-based; details: negative control subtype
T3 construct: full-length receptor with C-terminal Nluc or N-terminal SNAP; expressed in HEK293-derived cells
T3 sequence (Q9ULV1 37-537): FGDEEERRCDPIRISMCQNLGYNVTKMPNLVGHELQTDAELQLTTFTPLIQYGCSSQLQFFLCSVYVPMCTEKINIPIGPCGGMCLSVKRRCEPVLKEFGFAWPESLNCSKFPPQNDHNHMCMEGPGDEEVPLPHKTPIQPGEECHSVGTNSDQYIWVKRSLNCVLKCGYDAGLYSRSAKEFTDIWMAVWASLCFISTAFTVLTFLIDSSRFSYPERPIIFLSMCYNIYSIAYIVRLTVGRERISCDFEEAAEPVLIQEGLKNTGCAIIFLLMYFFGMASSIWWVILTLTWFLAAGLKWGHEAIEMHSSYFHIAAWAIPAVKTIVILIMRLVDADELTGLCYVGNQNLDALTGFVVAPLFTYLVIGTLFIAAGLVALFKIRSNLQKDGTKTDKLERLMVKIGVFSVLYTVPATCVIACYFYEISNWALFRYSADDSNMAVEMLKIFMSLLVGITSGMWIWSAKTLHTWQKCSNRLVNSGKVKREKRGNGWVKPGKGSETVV

[6] = target: T4, SMO–Rluc8 (Mus musculus, UniProt P56726); assay: BRET Venus–mGsi recruitment to SMO–Rluc8; assay type: cell-based; details: agonist; no bell shape
T4 construct: full-length receptor with C-terminal Rluc8; expressed in HEK293-derived cells
T4 sequence (P56726 33-793): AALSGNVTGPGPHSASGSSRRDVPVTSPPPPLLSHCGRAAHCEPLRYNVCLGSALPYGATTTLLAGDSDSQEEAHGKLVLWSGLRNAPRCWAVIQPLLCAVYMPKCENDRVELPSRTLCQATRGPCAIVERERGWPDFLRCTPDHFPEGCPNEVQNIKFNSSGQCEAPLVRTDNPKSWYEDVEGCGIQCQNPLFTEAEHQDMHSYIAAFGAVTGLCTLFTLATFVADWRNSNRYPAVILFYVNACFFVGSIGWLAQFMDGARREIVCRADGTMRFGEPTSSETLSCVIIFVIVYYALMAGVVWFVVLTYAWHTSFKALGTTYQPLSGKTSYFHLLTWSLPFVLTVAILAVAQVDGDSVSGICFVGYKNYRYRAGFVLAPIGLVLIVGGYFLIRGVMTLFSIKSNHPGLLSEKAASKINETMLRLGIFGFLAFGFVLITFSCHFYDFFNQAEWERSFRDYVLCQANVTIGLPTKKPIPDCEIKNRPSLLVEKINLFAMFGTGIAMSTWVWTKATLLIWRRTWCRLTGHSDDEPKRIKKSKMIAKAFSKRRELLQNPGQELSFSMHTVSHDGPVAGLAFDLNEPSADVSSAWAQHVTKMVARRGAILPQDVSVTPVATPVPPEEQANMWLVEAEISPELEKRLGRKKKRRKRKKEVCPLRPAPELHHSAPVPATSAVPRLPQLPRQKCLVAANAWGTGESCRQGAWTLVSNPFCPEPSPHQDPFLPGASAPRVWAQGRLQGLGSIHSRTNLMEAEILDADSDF

[7] = target: T1, FZD6 (Nluc–FZD6; SNAP–FZD6; SNAP–FZD6–Rluc8; FLAG–FZD6–Nluc); assay: BRET Venus–mGsi recruitment to SNAP–FZD6–Rluc8; assay type: cell-based; details: agonist; no bell shape
[8] = target: T5, FZD6–FlAsH–TFP (human) (UniProt O60353)
T5 sequence (chain, FlAsH (fluorescein arsenical hairpin binder) labelled on the FlAsH-binding motif): T1 sequence (O60353 19-706)

## CC1=C2CC3C(CC=C4C[C@@H](O)CCC43C)C2CCC12O[C@@H]1CC(C)CN(CCNC(=O)CCCCCNC(=O)CCC3=[N+]4C(=Cc5c(C)cc(C)n5[B-]4(F)F)C=C3)C1C2C (stereo partly drawn) [BODIPY–cyclopamine]
[1]
  pKd: 6.3 ± 0.1

## CN[C@H]1CC[C@H](N(Cc2cccc(-c3ccncc3)c2)C(=O)c2sc3ccccc3c2Cl)CC1 [SAG1.3, 3-chloro-N-[trans-4-(methylamino)cyclohexyl]-N-[[3-(4-pyridinyl)phenyl]methyl]-benzo[b]thiophene-2-carboxamide dihydrochloride]
[2]
  EC50: 0.316 µM
[3]
  EC50: A similar biphasic concentration–response curve was observed
[4]
  Ki: 2.51 µM
[5]
  BRET Venus-mG13 recruitment to FZD4-Nluc: we did not detect any SAG1.3-induced Venus–mG13 recruitment

## c1ccc2c(Oc3nc(Nc4ccc(N5CCOCC5)cc4)c4ncn(C5CCCCC5)c4n3)cccc2c1 [purmorphamine, 9-cyclohexyl-N-[4-(4-morpholinyl)phenyl]-2-(1-naphthalenyloxy)-9H-purin-6-amine]
[6]
  EC50: concentration-dependent recruitment of Venus–mGsi to SMO–Rluc8 and SNAP–FZD6–Rluc8
[7]
  EC50: concentration-dependent recruitment of Venus–mGsi to SMO–Rluc8 (d) and SNAP–FZD6–Rluc8

B1: recombinant WNT-5A (ligand)
chain: IIGAQPLCSQLAGLSQGQKKLCHLYQDHMQYIGEGAKTGIKECQYQFRHRRWNCSTVDNTSVFGRVMQIGSRETAFTYAVSAAGVVNAMSRACREGELSTCGCSRAARPKDLPRDWLWGGCGDNIDYGYRFAKEFVDARERERIHAKGSYESARILMNLHNNEAGRRTVYNLADVACKCHGVSGSCSLKTCWLQLADFRKVGDALKEKYDSAAAMRLNSRGKLVQVNSRFNSPTTQDLVYIDPSPDYCVRNESTGSLGTQGRLCNKTSEGMDGCELMCCGRGYDQFKTVQTERCHCKFHWCCYVKCKKCTEIVDQFVCK
[8]
  decrease of the intramolecular FRET ratio (FlAsH/TFP) of the FZD6–FRET probe in HEK293 cells with increasing concentrations of WNT-5A; log10EC50 (log10 (ng ml^−1)): 2.2
  decrease of the intramolecular FRET ratio (FlAsH/TFP) of the FZD6–FRET probe in HEK293 cells, WNT-5A up to 1000 ng ml^−1; maximum efficacy: 4.9%
